Measured values: patent publication US11969402B2, “Compositions and methods for skin rejuvenation” (THE JOHNS HOPKINS UNIVERSITY, priority 2019, dated 2024)

Columns and labels:
[1] = tested on: human scalp keratinocytes; assay: Western blot / immunostaining of ALDH1A3, KRT15, KRT19 in human keratinocytes; assay type: cell-based; conditions: for ALDH1A3 protein: human keratinocytes, western blot
Experimental: BMS493 treatment. BMS493 pan-RARs antagonist (1 μM) was pre-treated into keratinocytes for an hour and cells were incubated with RA (0.1 μM and 0.5 μM for human and mouse keratinocytes, respectively) or Poly (I:C) (0.1 μg per ml for both human and mouse keratinocytes) for 48 hrs. At the end of the experiment, cells were harvested for RNA and protein extraction to do further analysis including qRT-PCR and western blot.
Western blot analysis. Human and mouse keratinocytes were disrupted in M-PER lysis buffer (Thermo Fisher Scientific, #78501) containing protease inhibitors (Thermo Fisher Scientific, #87786) using ultrasonic homogenizer (20% power with 5 times every 2 seconds) to extract proteins. Then, protein concentrations were determined by BCA method (Thermo Fisher Scientific, #23225). Western blot procedures were followed by the protocol of NuPAGE system (Thermo Fisher Scientific). Briefly, 20 μg of protein samples were loaded for electrophoresis and transferred to polyvinylidene di-fluoride (PVDF) membrane (Bio-Rad, Hercules, CA). After blocking for at least an hour in 5% non-fat dry milk, the membrane was incubated with primary antibodies with appropriate dilutions (Table 2) at 4° C. overnight and followed by incubation with secondary antibodies for 1 hour at room temperature. Protein amounts were normalized to rabbit polyclonal anti-human β-actin antibody (1:1,000 dilution) (Cell Signaling Technology). Finally, proteins were visualized using SuperSignal West Pico PLUS chemiluminescent substrate kit (Thermo Fisher Scientific, #34577) and saved as image files using ChemiDoc XRS^+ (Bio-Rad). The signal intensity of protein was quantified using Image Lab software (Bio-Rad). Original images of representative blots were provided in the Source data file.
Immunofluorescence. For tissues, frozen-sections of mouse skin samples were stained with primary antibodies with appropriate dilution at 4° C. overnight, followed by incubation with goat anti-rabbit IgG labeled with Alexa Flour® 488 (Life Technologies) and 594 (Life Technologies) for 1 hour at room temperature. For cells, keratinocytes (3×10^5 cells) plated on cover-slip were fixed with 4% Paraformaldehyde (PFA) for 10 min, permeabilized in PBS including 0.5% Triton X-100 for 15 min at room temperature. After washing with PBS 3 times, cells were stained with primary antibodies overnight at 4° C., followed by incubation with goat anti-rabbit or mouse IgG labeled with Alexa Flour® 488 for 1 hour at room temperature. Cell nuclei were visualized by mounting medium including DAPI (Vector Laboratories, Burlingame, CA, H-1200). Fluorescence images were observed by fluorescence microscopy (Leica microsystems), taken pictures with ×100 (low magnification) and ×200 (high magnification), and saved as image files.

[2] = tested on: Wound Induced Hair Neogenesis (WIHN); assay: Wound Induced Hair Neogenesis (WIHN), regenerated hair follicles counted by CSLM; assay type: in vivo, mouse
Experimental: (§1) Wound Induced Hair Neogenesis (WIHN). All experiments were followed with the present inventors' WIHN protocol^1,9. Briefly, hair was shaved and a 1.2 cm^2 full-thickness skin on the backs of 21-day old (telogen) male and female mice was removed by sterile scissors. A single treatment of RA (30 μl) (0.1 μg per mouse) (Millipore Sigma, R2625) and BMS493 (30 μl) (0.1 μg per mouse) (Cayman Chemical, #17418) was applied topically onto open wound on WD1 of Tlr3^−/− and WT mice, respectively. Poly (I:C) (50 μl) (5 μg per mouse) (Invivogen, tlrl-pic) was injected under the healed scab on WD3 of WT mice as described before^9,34. On WD20-24, numbers of regenerated hair follicles were visualized and quantified in the re-epithelialized skin by non-invasive confocal scanning laser microscopy (CSLM) (Caliber I.D., VIVASCOPE 1500) as published^1,9. As a vehicle (Control), ethanol (EtOH), dimethylsulfoxide (DMSO), or PBS was treated for RA, BMS493, and Poly (I:C), respectively.

wounded skin = assay: Retinoid levels in mouse skin (LC-MS/MS, HPLC-UV); assay type: in vivo; conditions: for ROL and RE in wounded skin: WT and Tlr3−/− mice
Experimental: as §1
Tissue preparation from wounded mice. Wild type (C57BL/6J and 6NJ) and Tlr3^−/− mice were wounded as did in WIHN experiments. On PWD11 when wounds are closed, the center and edge of the wound was separated by scissors. Skin samples were immediately frozen and saved in liquid nitrogen for further analysis.
Determination of Retinoid Levels. For in vitro samples, human scalp keratinocytes were incubated with 0.5 μg per ml of Poly (I:C) for 48 hrs or siRNAs-transfected cells were incubated with 0.1 μg per ml of Poly (I:C) for 48 hrs. For in vivo samples, skin was analyzed from wild-type and Tlr3^−/− unwounded and wounded skin where wound regions (center and edge area) were cut by scalpel. Human skin was analyzed for retinoids with and without CO2 laser treatment as described. All samples were frozen at collection and stored at −80° C. until extraction. For in vitro experiments, media and cell pellets were analyzed separately. For in vivo experiments, tissues were homogenized in saline. Extraction of retinoids was performed under yellow lights using a two-step liquid-liquid extraction that has been described in detail previously using 4,4-dimethyl-RA as an internal standard for RA and retinyl acetate as an internal standard for retinol and total retinyl ester^43-46. For the extraction of retinoids, 1 to 3 ml of 0.025 M KOH in ethanol was added to tissue homogenates (in vivo) or cell culture (in vitro) samples. Then 10 ml hexane (for in vivo tissue sample) or 5 ml hexane (for in vitro cell culture sample) was added to the aqueous ethanol phase. The samples were vortexed and centrifuged for 1 to 3 min at 1000 rpm in a Dynac centrifuge (Becton Dickinson) to facilitate phase separation and pellet precipitated protein. The hexane (top) phase containing nonpolar retinoids (ROL and RE) was removed. 4 M HCl (60-180 μl) was added to the remaining aqueous ethanol phase, samples were vortexed, and then polar retinoids (RA) were removed by extraction with a second 5-10 ml aliquot of hexane as described above. Organic hexane phases were evaporated under nitrogen while heating at approximately 25 to 30° C. in a water bath (model N-EVAP 112, Organomation Associates, Berlin, MA, USA). All samples were resuspended in 60 μl acetonitrile. Only glass containers, pipettes, and syringes were used to handle retinoids.
Levels of RA were determined by liquid chromatography-multistage tandem mass spectrometry (LC-MRM^3) which is an LC-MS/MS method utilizing two distinct fragmentation events for enhanced selectivity^43. RA was measured using a Shimadzu Prominence UFLC XR liquid chromatography system (Shimadzu, Columbia, MD) coupled to an AB Sciex 5500 or 6500+ QTRAP hybrid triple quadrupole mass spectrometer (AB Sciex, Framingham, MA) using atmospheric pressure chemical ionization (APCI) operated in positive ion mode as previously described^43. […]

Question: “Polyinosinic-polycytidylic acid [Poly (I:C)]” was tested. Which “ALDH1A3, KRT15 and KRT19 protein expression” value ([1]; human keratinocytes following Poly (I:C) stimulation) did it give?
Answer: The value was “upregulated”.

Question: And the ALDH1A3 protein [1]?
Answer: Its ALDH1A3 protein is “robustly increased”.

Question: What about the “hair follicle regeneration (WIHN)” value ([2]; MDA5−/− mice, similar to WT) of the same molecule?
Answer: The value was “induces hair follicle regeneration”.

Question: What about the “new hair follicle formation (WIHN)” value ([2]; WT mice, single injection 5 μg per mouse on WD3) of the same molecule?
Answer: The value was “stimulates new hair follicle formation”.

Question: And the “amount of RA during wound healing” value (wounded skin; Tlr3−/− mice)?
Answer: Its value is “much less so”.

Question: And the “ROL and RE in wounded skin” value (wounded skin; Poly (I:C) vs PBS)?
Answer: Its value is “not significant”.

Question: And the “amount of RA during wound healing” value (wounded skin; WT mice)?
Answer: The value was “substantially increased”.

Question: And the “RA in center of the wound before morphogenesis” value (wounded skin; wild type mice, PWD11, center vs edge, not in Tlr3−/− mice)?
Answer: Its value is “accumulates more RA”.

Question: Which results are given for `CC1=C(/C=C/C(C)=C/C=C/C(C)=C/C(=O)O)C(C)(C)CCC1` [RA, all-trans-retinoic acid]?
Answer: ALDH1A3 protein [1]: robustly increased; hair follicle regeneration (WIHN) ([2]; Tlr3−/− mice, topical 0.1 μg per mouse on WD1): modestly increased; WIHN ([2]; WT mice, supraphysiologic doses of RA): do not modify; tissue RA levels prior to morphogenesis (wounded skin; Tlr3−/− mice, exogenous RA): measurable increases; ROL and RE in wounded skin (wounded skin; RA vs ethanol): not significant
